Patent US9604964B2, “Dihydropyrazole GPR40 modulators” (BRISTOL-MYERS SQUIBB COMPANY, priority 2012, dated 2017)

Experiments:
human GPR40 [1] = molecular target: T1, human GPR40 (Homo sapiens, UniProt O14842); assay: FDSS-based intracellular calcium assay (Human GPR40 in vitro assay); type: cell-based; design: 3xFLAG; expressed in transfected cells; details: intracellular Ca2+ response, cells expressing GPR40; read-out: hGPR40 EC50
Procedure: FDSS-based Intracellular Calcium Assay
Compounds are dissolved in DMSO and diluted to desired concentrations with assay buffer and added to the cells as 3× solution (20 μL per well). Run fluorescence/luminescence reader FDSS (Hamamatsu) to read intracellular Ca^2+ response.

human GPR40 [2] = molecular target: T1, human GPR40; assay: GPR40 IP-One HTRF assay in HEK293/GPR40 inducible cell lines; type: cell-based; design: expressed in transfected cells; details: HEK293 cells, tetracycline-inducible human GPR40, IP-One HTRF; read-out: hGPR40 IP1 EC50
Procedure: GPR40 IP-One HTRF Assays in HEK293/GPR40 Inducible Cell Lines
Human, mouse and rat GPR40-mediated intracellular IP-One HTRF assays were established using human embryonic kidney HEK293 cells stably transfected with a tetracycline-inducible human, mouse or rat GPR40 receptor. Cells were routinely cultured in growth medium containing DMEM (Gibco Cat. #:12430-047), 10% qualified FBS (Sigma, Cat. #: F2442), 200 μg/mL hygromycin (Invitrogen, Cat. #: 16087-010) and 1.5 μg/mL blasticidin (Invitrogen, Cat. # R210-01). About 12-15 million cells were passed into a T175 tissue culture flask (BD Falcon 353112) with growth medium and incubated for 16-18 hours (overnight) at 370 C with 5% CO2. The next day, assay medium was exchanged with growth medium containing 1000 ng/mL of tetracycline (Fluka Analytical, Cat. #87128) to induce GPR40 expression for 18-24 hours at […] incubator with 5% CO2. After induction, the cells were washed with PBS (Gibco, Cat. #14190-036) and detached with Cell Stripper (Cellgro, Cat. #25-056-CL). 10-20 mL growth medium were added to the flask and cells were collected in 50 mL tubes (Falcon, Cat.#:352098) and spun at 1000 RPM for 5 minutes. Culture medium was aspirated and the cells were resuspended in 10 mL of 1×IP-One Stimulation Buffer from the Cisbio IP-One kit (Cisbio, Cat. #62IPAPEJ). The cells were diluted to 1.4×10^6 cells/mL in Stimulation Buffer.
Test compounds were 3-fold, 11-point serially diluted in DMSO in a REMP assay plate (Matrix Cat. #: 4307) by BioCel (Agilent). The compounds were transferred into an Echo plate (LABCYTE, Cat. #: LP-0200) and 20 nL of diluted compounds were transferred to an assay plate (proxi-plate from Perkin Elmer, Cat. #6008289) by Echo acoustic nano dispenser (LABCYTE, model ECHO550). 14 μL of the diluted cells were then added to the assay plate by Thermo (SN 836 330) Combi Drop and incubated at room temperature for 45 minutes. Then 3 μL of IP1 coupled to dye D2 from the Cisbio IP-One kit were added to the assay plate followed by 3 μL of Lumi4TM-Tb cryptate K from the kit. The plate was further incubated at room for 1 hour before reading on the Envision (Perkin Elmer Model2101) with an HTRF protocol. Activation data for the test compound over a range of concentrations was plotted as percentage activation of the test compound (100%=maximum response). After correcting for background [(sample read-mean of low control)/(mean of high control−mean of low control)] (low control is DMSO without any compound), EC50 values were determined. The EC50 is defined as the concentration of test compound which produces 50% of the maximal response and was quantified using the 4 parameter logistic equation to fit the data.

T1 sequence (O14842 whole entry): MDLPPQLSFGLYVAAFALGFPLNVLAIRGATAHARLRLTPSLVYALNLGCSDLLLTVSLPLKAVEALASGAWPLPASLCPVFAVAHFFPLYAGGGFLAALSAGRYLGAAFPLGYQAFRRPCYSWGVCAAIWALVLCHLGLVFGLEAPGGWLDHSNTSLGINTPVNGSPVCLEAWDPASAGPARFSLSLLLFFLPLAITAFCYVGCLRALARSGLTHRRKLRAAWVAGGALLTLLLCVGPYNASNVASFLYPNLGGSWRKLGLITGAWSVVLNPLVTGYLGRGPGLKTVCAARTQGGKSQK

| Structure (SMILES) | EC50 (human GPR40 [1]) [nM] | EC50 (human GPR40 [2]) [nM] |
| --- | --- | --- |
| COc1cc(N2CCC(Oc3ccc(N4N=C(C(F)(F)F)[C@@H](C)[C@@H]4CC(=O)O)cn3)C(C)C2)c(Cl)cn1 (single isomer, unassigned) [Example 103 Isomer 2] | 96 | 43 |
| CCOc1ccc(F)c(N2CCC(Oc3ccc(N4N=C(C(F)(F)F)[C@@H](C)[C@@H]4CC(=O)O)cc3)C(Cc3ccccc3)C2)c1 (single isomer, unassigned) [Example 28 (Isomer 2)] | 1320 | 230 |
| CCOc1ccc(F)c(N2CC[C@@H](Oc3ccc(N4N=C(c5ccc(S(C)(=O)=O)cc5)[C@@H](C)[C@@H]4CC(=O)O)cc3)[C@H](C)C2)c1 [Example 98, 2-((4S,5S)-1-(4-(((3R,4R)-1-(5-ethoxy-2-fluorophenyl)-3-methylpiperidin-4-yl)oxy)phenyl)-4-methyl-3-(4-(methylsulfonyl)phenyl)-4,5-dihydro-1H-pyrazol-5-yl)acetic acid] | 83 | 25 |
| CCOc1ccc(F)c(N2CCC(Oc3ccc(N4N=C(C(F)(F)F)[C@@H](C)[C@@H]4CC(=O)O)cc3)C(OC)C2)c1 (single isomer, unassigned) [Example 31 (Isomer 1)] | 473 | 13 |
| COc1cc(N2CC[C@@H](Oc3ccc(N4N=C(C(F)(F)F)[C@@H](C)[C@@H]4CC(=O)O)cc3)[C@H](CC#N)C2)c(Cl)cn1 [Example B2, 2-((4S,5S)-1-(4-(((3R,4R)-1-(5-chloro-2-methoxypyridin-4-yl)-3-(cyanomethyl)piperidin-4-yl)oxy)phenyl)-4-methyl-3-(trifluoromethyl)-4,5-dihydro-1H-pyrazol-5-yl)acetic acid] | 586 | 362 |
| C[C@@H]1C(C(F)(F)F)=NN(c2ccc(OC3CCN(c4cc(O)ccc4F)CC3)cc2)[C@H]1CC(=O)O [Example 102, 2-((4S,5S)-1-(4-((1-(2-fluoro-5-hydroxyphenyl)piperidin-4-yl)oxy)phenyl)-4-methyl-3-(trifluoromethyl)-4,5-dihydro-1H-pyrazol-5-yl)acetic acid] | – | 131 |
| COc1cccc(N2CCC(Cc3ccc(N4N=C(c5ccc(F)cc5)[C@@H](C)[C@@H]4CC(=O)O)cc3)CC2)c1 [Example 101, 2-((4S,5S)-3-(4-fluorophenyl)-1-(4-((1-(3-methoxyphenyl)piperidin-4-yl)methyl)phenyl)-4-methyl-4,5-dihydro-1H-pyrazol-5-yl)acetic acid] | 281 | 40 |
| C[C@@H]1C(C(F)(F)F)=NN(c2ccc(CC3C4CCC3CN(C(=O)OCc3ccccc3)C4)cc2)[C@H]1CC(=O)O (stereo partly drawn) [Example B11, 2-((4S,5S)-1-(4-(((1R,5S,8S)-3-((benzyloxy)carbonyl)-3-azabicyclo[3.2.1]octan-8-yl)methyl)phenyl)-4-methyl-3-(trifluoromethyl)-4,5-dihydro-1H-pyrazol-5-yl)acetic acid] | 7380 | – |
| COc1cc(N2CCC(Cc3ccc(N4N=C(C(F)(F)F)[C@@H](C)[C@@H]4CC(=O)O)cc3)CC2)ccn1 [Example B9, 2-((4S,5S)-1-(4-((1-(2-methoxypyridin-4-yl)piperidin-4-yl)methyl)phenyl)-4-methyl-3-(trifluoromethyl)-4,5-dihydro-1H-pyrazol-5-yl)acetic acid] | 2660 | – |
| COc1ccc(F)c(N2C[C@H]3C[C@@H]2CC3Oc2ccc(N3N=C(C(F)(F)F)[C@@H](C)[C@@H]3CC(=O)O)cc2)c1 (stereo partly drawn) [Example 69, 2-((4S,5S)-1-(4-(((1R,4R)-2-(2-fluoro-5-methoxyphenyl)-2-azabicyclo[2.2.1]heptan-5-yl)oxy)phenyl)-4-methyl-3-(trifluoromethyl)-4,5-dihydro-1H-pyrazol-5-yl)acetic acid] | 847 | – |
| COc1ccc(F)c(N2CCCC(Oc3ccc(N4N=C(C(F)(F)F)[C@@H](C)[C@@H]4CC(=O)O)cc3)CC2)c1 (stereo partly drawn) [Example 23, 2-((4S,5S)-1-(4-((1-(2-fluoro-5-methoxyphenyl)azepan-4-yl)oxy)phenyl)-4-methyl-3-(trifluoromethyl)-4,5-dihydro-1H-pyrazol-5-yl)acetic acid] | 3020 | – |
| C[C@@H]1C(C(F)(F)F)=NN(c2ccc(OC3CCN(c4ccc(C(F)(F)F)cn4)CC3)cc2)[C@H]1CC(=O)O [Example 6, 2-((4S,5S)-4-methyl-3-(trifluoromethyl)-1-(4-((1-(5-(trifluoromethyl)pyridin-2-yl)piperidin-4-yl)oxy)phenyl)-4,5-dihydro-1H-pyrazol-5-yl)acetic acid] | 7520 | – |
| COc1cc(N2CCC(Oc3ccc(N4N=C(C(F)(F)F)[C@@H](C)[C@@H]4CC(=O)O)cn3)C(C)C2)c(Cl)cn1 (single isomer, unassigned) [Example 103 Isomer 1] | 533 | – |
| COc1cc(N2CC(CCc3ccc(N4N=C(C(F)(F)F)[C@@H](C)[C@@H]4CC(=O)O)cc3)C2)c(Cl)cn1 [Example B36, 2-((4S,5S)-1-(4-(2-(1-(5-chloro-2-methoxypyridin-4-yl)azetidin-3-yl)ethyl)phenyl)-4-methyl-3-(trifluoromethyl)-4,5-dihydro-1H-pyrazol-5-yl)acetic acid] | 591 | – |
| COc1ccc(F)c(N2CCCC(Oc3ccc(N4N=C(C(F)(F)F)[C@@H](C)[C@@H]4CC(=O)O)cc3)C2)c1 (mixture of isomers) [Example B26, 2-((4S,5S)-1-(4-((1-(2-fluoro-5-methoxyphenyl)piperidin-3-yl)oxy)phenyl)-4-methyl-3-(trifluoromethyl)-4,5-dihydro-1H-pyrazol-5-yl)acetic acid] | 4230 | – |
| COc1cc(N2CC(COc3ccc(N4N=C(C(F)(F)F)[C@@H](C)[C@@H]4CC(=O)O)cc3)C2)c(Cl)cn1 [Example B33, 2-((4S,5S)-1-(4-((1-(5-chloro-2-methoxypyridin-4-yl)azetidin-3-yl)methoxy)phenyl)-4-methyl-3-(trifluoromethyl)-4,5-dihydro-1H-pyrazol-5-yl)acetic acid] | 713 | – |
| CC(C)CS(=O)(=O)N1CCC(Oc2ccc(N3N=C(C(F)(F)F)[C@@H](C)[C@@H]3CC(=O)O)cc2)CC1 [Example B23, 2-((4S,5S)-1-(4-((1-(isobutylsulfonyl)piperidin-4-yl)oxy)phenyl)-4-methyl-3-(trifluoromethyl)-4,5-dihydro-1H-pyrazol-5-yl)acetic acid] | 2000 | – |
| C[C@@H]1C(C(F)(F)F)=NN(c2ccc(OCC3CN(S(=O)(=O)C4CCCCC4)C3)cc2)[C@H]1CC(=O)O [Example B31, 2-((4S,5S)-1-(4-((1-(Cyclohexylsulfonyl)azetidin-3-yl)methoxy)phenyl)-4-methyl-3-(trifluoromethyl)-4,5-dihydro-1H-pyrazol-5-yl)acetic acid] | 3770 | – |
| COc1cc(N2CC3CCC(C2)C3Cc2ccc(N3N=C(C(F)(F)F)[C@@H](C)[C@@H]3CC(=O)O)cc2)c(Cl)cn1 (stereo partly drawn) [Example B13, 2-((4S,5S)-1-(4-(((1R,5S,8S)-3-(5-chloro-2-methoxypyridin-4-yl)-3-azabicyclo[3.2.1]octan-8-yl)methyl)phenyl)-4-methyl-3-(trifluoromethyl)-4,5-dihydro-1H-pyrazol-5-yl)acetic acid] | 2200 | – |
| CCOc1cc(F)c(F)c(N2CCC(Oc3ccc(N4N=C(c5ccc(F)c(F)c5)[C@@H](C)[C@@H]4CC(=O)O)cc3)CC2)c1 [Example 97, 2-((4S,5S)-3-(3,4-difluorophenyl)-1-(4-((1-(5-ethoxy-2,3-difluorophenyl)piperidin-4-yl)oxy)phenyl)-4-methyl-4,5-dihydro-1H-pyrazol-5-yl)acetic acid] | 3140 | – |
| Cc1nc(C)c(N2CCC(Oc3ccc(N4N=C(C(F)(F)F)[C@@H](C)[C@@H]4CC(=O)O)cc3)CC2)s1 [Example B16, 2-((4S,5S)-1-(4-((1-(2,4-Dimethylthiazol-5-yl)piperidin-4-yl)oxy)phenyl)-4-methyl-3-(trifluoromethyl)-4,5-dihydro-1H-pyrazol-5-yl)acetic acid] | 1100 | – |
